Where “and” joins values, the source holds several entries; their conditions need not be identical. Identical values can stand only once.
Experiments:
[1] = system: LPS-induced nitric oxide production in murine macrophages; assay: NO inhibition, compound solubilized in DMSO or in HSA; type: cell-based, mouse; conditions: DMSO vs HSA solubilization (FIG. 7C)
[2] = biological target: human serum albumin (Homo sapiens, UniProt P02768); assay: biochemical; conditions: KD for HSA, isothermal titration calorimetry; single-site model
[3] = system: S. aureus ATCC 13709; assay: microbe, parasite or virus in culture
Method: (§1) An equal volume of a suspension of either E. coli ATCC 9637 (FIG. 6A) or S. aureus ATCC 13709 (FIG. 6B) in 2× Mueller-Hinton broth was added using an automated liquid dispensing system to a 384 well plate, and bacterial growth was measured by absorptimetry as described in Materials and Methods.
(§2) In this example, E. coli strain 9637 and S. aureus strain 13709 were procured from ATCC (Manassas, Va.). For IM permeability assays, E. coli ML-35 (ATCC 43827), a lactose permease-deficient strain with constitutive cytoplasmic β-galactosidase activity was used (26). Calcium chloride transformation of E. coli ML-35 was performed using the plasmid vector pBR322 (6), encoding tetracycline and ampicillin resistance genes (Promega, Madison, Wis.). The transformed strain, E. coli ML-35p, selected by ampicillin resistance, was utilized for the OM permeabilization assay. E. coli ML-35p was maintained on trypticase soy agar plates with 50 μg/ml of ampicillin.
(§3) Minimum inhibitory concentrations of the acylpolyamines were determined by broth microdilution method (1) as per NCCLS guidelines. Mid-log phase Mueller-Hinton broth (MHB; non-cation supplemented) cultures of organisms (40 μl; OD600nm adjusted to 0.5 AU, and diluted ten-fold) were added to equal volumes of two-fold serially diluted acylpolyamines in a 384-well microtiter plate with the help of a Biotek Precision 2000 automated microplate pipetting system. The MICs of rifampicin, polymyxin B (PMB), polymyxin B nonapeptide (PMBN), naphthylacetyl spermine trihydrochloride and methoctramine tetrahydrochloride (Sigma, St. Louis, Mo.) were included as reference compounds for comparison of activity. The microtiter plates were sealed and incubated overnight at 37° C. The plates were read at an absorbance of 600 nm. The lowest concentration of an agent inhibiting growth of the organisms was recorded as the MIC.

[4] = system: E. coli ATCC 9637; assay: microbe, parasite or virus in culture
Method: as §1, §2, §3

[5] = system: E. coli ATCC 9637; assay: Effect of acylpolyamines on MIC of rifampicin (sensitization); type: cell-based, Escherichia coli; design: key to Sensitization to Rifampin: fold sensitization = MIC rifampicin alone / MIC with 10 μM compound; conditions: E. coli strain 9637 preincubated with 10 μM of compound; MIC of rifampicin
Method: E. coli ATCC 9637 was seeded in MH broth in chequerboard format in a 384-well plate containing a constant concentration of compound and varying doses of rifampicin. Bacterial growth was monitored by turbidimetry at 600 nm. PMBN and melittin were used as positive controls. Wells containing no test-compound served as negative control. […] Fold sensitization was calculated as MICRifampicin alone/MICRifampicin+10μM Compound.
Perturbation of the outer membrane permeability barrier greatly sensitizes Gram negative organisms to otherwise impermeable hydrophobic solutes, rifampicin being a classic example To determine the effect of acylpolyamines on the MIC of hydrophobic antibiotic, rifampicin, E. coli strain 9637 was used. Overnight cultures of E. coli grown in MHB preincubated with 10 μM of acylpolyamines were added to serially diluted rifampicin in a 384-well microtiter plate. After incubation at 37° C. overnight, the MIC was determined. Controls included PMBN and melittin (positive) and rifampicin alone (negative). All experiments were run in triplicate.

[6] = system: E. coli ML-35p (OM) / E. coli ML-35 (IM); type: cell-based, Escherichia coli; conditions: nitrocefin and ONPG hydrolysis
Method: OM permeabilizing activity was determined using E. coli ML-35p (parent i^− z^+ y^− ATCC 43827 transformed with pBR322 vector encoding periplasmic β-lactamase); the leakage of periplasmic β-lactamase activity was quantified using nitrocefin as a chromogenic substrate. IM permeabilizing activity was determined using E. coli ML-35 using o-nitrophenyl-β-D-galactopyranoside as the substrate to determine the β-galactosidase activity. In all experiments, PMB, PMBN, and melittin were used as reference compounds.
Nitrocefin (Calbiochem, San Diego, Calif.) was used for the determination of periplasmic β-lactamase activity since PADAC has been reported to be frequently insensitive to β-lactamase activity in clinically relevant strains of Staphylococcus. […] Harvested mid-log phase cultures of E. coli ML-35p (OD600nm adjusted to 0.5 AU) grown in trypticase soy broth were washed thrice with normal saline (0.9%). Nitrocefin was added to a final concentration of 50 μg/ml to the washed bacterial suspension, which was then added to the serially diluted compounds in a 384-well microtiter plate as described earlier. […] After various times of incubation at 37° C., β-lactamase activity was measured spectrophotometrically at 486 nm using an automated Spectramax M2 instrument (Molecular Devices, Sunnyvale, Calif.).
The IM permeability was measured using o-nitrophenyl-β-D-galactopyranoside (“ONPG”; Sigma, St. Louis, Mo.) as the substrate to determine the β-galactosidase activity. […] Washed cultures of E coli ML-35 mixed with 1.5 mM of ONPG in normal saline (0.9%) were added to serially diluted compounds in a 384-well microtiter plate. PMBN and melittin were used as the controls. The production of o-nitrophenol was quantified absorptimetrically at 420 nm after an incubation period of 1 hour at 37° C.
OM and IM permeability were determined respectively from dose-response curves of nitrocefin and ONPG hydrolysis rates as described in Lehrer et al., Concurrent assessment of inner and outer membrane permeabilization and bacteriolysis in E. coli by multiple-wavelength spectrophotometry, J. Immunol.

[7] = system: human whole blood; assay: Hemolysis in fresh whole human blood (released hemoglobin, 570 nm); type: cell-based; conditions: fresh undiluted EDTA human blood, 37° C., 30 min
Method: Melittin was used as a positive control.
1:233-245 (2004). Erythrocyte damage was measured using two different techniques. […] Biophys. Acta 1123:269-274 (1992).

Sequence of human serum albumin (P02768 25-609): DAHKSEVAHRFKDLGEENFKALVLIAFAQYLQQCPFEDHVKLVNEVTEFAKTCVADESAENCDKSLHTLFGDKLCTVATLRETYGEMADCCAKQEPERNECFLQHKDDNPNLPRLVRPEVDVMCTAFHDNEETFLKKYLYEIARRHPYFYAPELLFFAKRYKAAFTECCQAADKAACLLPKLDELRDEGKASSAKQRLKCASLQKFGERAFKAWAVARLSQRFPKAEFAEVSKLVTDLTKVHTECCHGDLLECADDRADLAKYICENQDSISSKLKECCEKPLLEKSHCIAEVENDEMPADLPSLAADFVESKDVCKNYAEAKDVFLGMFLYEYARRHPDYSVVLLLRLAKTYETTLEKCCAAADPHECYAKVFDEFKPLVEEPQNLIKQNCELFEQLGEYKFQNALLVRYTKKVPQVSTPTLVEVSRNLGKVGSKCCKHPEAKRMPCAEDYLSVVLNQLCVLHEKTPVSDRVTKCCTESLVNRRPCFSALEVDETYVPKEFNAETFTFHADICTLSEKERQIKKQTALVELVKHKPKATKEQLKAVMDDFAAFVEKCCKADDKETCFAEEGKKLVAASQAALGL

Compound: CCCCCCCCCCCCCCC(=O)NCCCNCCCNCCCCNCCCN [Compound 4e]
- potency of NO inhibition solubilized in DMSO or in HSA [1]: identical potency
- Kd [2]: 1980 nM and ~2000 nM
- MIC ([3]; Staphylococcus aureus, ATCC13709): 15.6 µM and 14.6 µg/mL
- MIC ([4]; Escherichia coli, ATCC9637): 31.2 µM and 29.3 µg/mL
- Sensitization to Rifampin [5]: 7.81

Compound: CC[C@H](C)[C@H](NC(=O)CN)C(=O)NCC(=O)N[C@@H](C)C(=O)N[C@H](C(=O)N[C@@H](CC(C)C)C(=O)N[C@@H](CCCCN)C(=O)N[C@H](C(=O)N[C@@H](CC(C)C)C(=O)N[C@H](C(=O)N[C@H](C(=O)NCC(=O)N[C@@H](CC(C)C)C(=O)N1CCC[C@H]1C(=O)N[C@@H](C)C(=O)N[C@@H](CC(C)C)C(=O)N[C@H](C(=O)N[C@@H](CO)C(=O)N[C@@H](Cc1c[nH]c2ccccc12)C(=O)N[C@H](C(=O)N[C@@H](CCCCN)C(=O)N[C@@H](CCCNC(=N)N)C(=O)N[C@@H](CCCCN)C(=O)N[C@@H](CCCNC(=N)N)C(=O)N[C@@H](CCC(N)=O)C(=O)N[C@@H](CCC(N)=O)C(N)=O)[C@@H](C)CC)[C@@H](C)CC)[C@@H](C)O)[C@@H](C)O)C(C)C)C(C)C [Melittin, melittin, reference compound]
- membrane-permeabilizing activity (OM and IM) [6]: potently membrane-permeabilizing
- MIC ([3]; S. aureus ATCC 13709, Mueller-Hinton broth, overnight 37° C.): 5.5 μM and 15.6 μg/ml
- MIC ([4]; E. coli ATCC 9637, Mueller-Hinton broth, overnight 37° C.): 175 μM and 498.1 μg/ml
- hemolysis in human whole blood [7]: caused hemolysis at low micromolar concentrations
